Test results taken from ChEMBL document CHEMBL1201862, “PubChem BioAssay data set” (2004).
Active and inactive are the calls of the source.

What was measured:
[1] = growth suppression of beta-catenin-knockout colon cells, dose response, cell-based, HCT116, human colon tumor (AID 1045); format: functional;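 further: HCT116 colon tumor cells with beta catenin knocked out; cells exposed to compound for 60 hours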
[2] = cytotoxicity toward NIH3T3 fibroblasts, dose response, counter-screen, cell-based, ATP luminescence, mouse fibroblasts (AID 2010); format: functional;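 further: cells exposed to compound for about 90 hours before reading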
[3] = HepG2 cell cytotoxicity, dose response, cytotoxicity control for Shn3 inhibitor project, CellTiter-Glo, cherry-picked (AID 624134); format: functional, cell-based
[4] = insulin promoter down-regulators in MIN6 cells, imaging, high-content screening, mouse beta cells (AID 1628); format: functional
[5] = cytotoxicity in MIN6 insulinoma cells, dose response, cytotoxicity control, cell-based, mouse insulinoma (AID 2122); format: functional;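 further: confirmatory high-throughput counterscreen run to flag cytotoxic compounds; mouse MIN-6 beta cells carrying an insulin promoter eGFP reporter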
A-375 [6] = experiment: MITF: Counter assay: A375 proliferation Measured in Cell-Based System Using Plate Reader - 2084-03_Inhibitor_Dose_DryPowder_Activity. [Related pubchem assays (depositor defined):AID488944]; format: functional; details: Homo sapiens
[7] = inhibitors of intracellular T. cruzi replication, confirmation, NIH3T3 host cells, beta-gal luminescence (AID 2044); format: functional, cell-based;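 further: intracellular parasites grown in NIH/3T3 mouse fibroblasts as host cells; luminescent beta-galactosidase reporter signal from transgenic T. cruzi replicating inside host cells; inhibitors lower the luminescence signal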
[8] = control 3'UTR Renilla luciferase suppression, dose response, counter-screen for Shn3 inhibitor project, cell-based, Clone20-Shn3RL, cherry-picked (AID 624133); format: functional
[9] = Shn3 3'UTR reporter inhibitors, dose response, cell-based, Clone20 osteoblasts, firefly luciferase, cherry-picked (AID 624132); format: functional;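 further: firefly luciferase luminescence from reporter carrying the Shn3 3'UTR in osteoblasts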
[10] = growth suppression of PTEN-null colon cells, dose response, cell-based, HCT116 PTEN knockout (AID 1047); format: functional;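 further: HCT116 colon tumor cells with PTEN knocked out; cells exposed to compound for 60 hours before readout; potency for loss of cell viability measured by luminescence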
[11] = target: T1, Microphthalmia-associated transcription factor (Homo sapiens, UniProt O75030); experiment: TRPM1 promoter luciferase signal decrease, dose response, MITF inhibitor project, cell-based, SK-MEL-5, cherry-picked, set 3 (AID 493073); format: functional
T1 sequence (O75030 whole entry): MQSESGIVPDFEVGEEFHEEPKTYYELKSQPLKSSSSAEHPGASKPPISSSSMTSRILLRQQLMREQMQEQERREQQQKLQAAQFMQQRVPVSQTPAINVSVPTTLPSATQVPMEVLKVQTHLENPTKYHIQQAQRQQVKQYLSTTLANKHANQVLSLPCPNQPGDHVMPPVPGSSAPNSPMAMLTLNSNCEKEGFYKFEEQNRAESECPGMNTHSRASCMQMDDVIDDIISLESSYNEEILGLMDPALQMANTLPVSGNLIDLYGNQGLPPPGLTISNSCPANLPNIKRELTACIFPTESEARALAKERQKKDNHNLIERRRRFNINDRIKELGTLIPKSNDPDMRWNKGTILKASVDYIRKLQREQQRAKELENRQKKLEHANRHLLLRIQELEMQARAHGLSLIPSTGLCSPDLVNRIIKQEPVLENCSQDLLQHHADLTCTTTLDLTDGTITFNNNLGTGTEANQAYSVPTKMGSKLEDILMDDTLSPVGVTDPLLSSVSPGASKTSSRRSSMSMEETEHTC

A-375 [12] = experiment: A375 melanoma cell viability reduction, dose response, counter-screen for MITF modulator project, cherry-pick samples, set 2 (AID 540335); format: functional, cell-based; details: Homo sapiens
[13] = CEM21 lymphoblast cell cytotoxicity, dose response, cytotoxicity control for viral fusion inhibitor project, CellTiter-Glo luminescence, cherry-picked (AID 652042); format: functional, cell-based;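 further: potency for signal decrease meaning cytotoxicity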
[14] = ZM109 Env clade C HIV-1 fusion inhibitors, dose response, HeLa effector, CEM target cells, luciferase, cherry-pick (AID 652058); format: functional, cell-based
[15] = off-target signal loss in HeLa-CEM21 co-culture – HeLa F-luc CTL cells, cherry-picked, counter-screen for HIV-1 Env fusion inhibitor project, dose response (AID 652040); format: functional, cell-based;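 further: potency for signal decrease marking cytotoxic or nonspecific inhibition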
HEK293 [16] = experiment: cells; details: Homo sapiens
HEK293 [17] = experiment: cells; details: Homo sapiens; remark: listed apart in the source
[18] = inhibitors of clade B AD8 Env fusion, dose response, cell-based, cherry-pick (AID 652062); format: functional;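 further: luciferase signal from cell-cell fusion driven by HIV-1 clade B AD8 Env; potency is for inhibitors of fusion seen as a drop in luminescence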
[19] = inhibitors of HIV Env-driven cell fusion, dose response, cherry-pick (AID 652057); format: functional, cell-based
Paired box protein Pax-8 = Paired box protein Pax-8 (Homo sapiens, UniProt Q06710); experiment: inhibitors of PAX8-driven TPO luciferase reporter, dose response, RMG-I cells, cherry-pick (AID 687027); format: functional, cell-based;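 further: luciferase reporter driven by Pax8 target thyroperoxidase promoter measured by SteadyGlo luminescence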
[20] = cytotoxicity in HEK-293T NF-kB-Luc cells, dose response, cytotoxicity control for B/T-cell NF-kB inhibitor project, cell-based, uHTS hits (AID 489019); format: functional;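 further: IC50 reflects cytotoxicity as loss of cell viability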
[21] = HepG2 cell cytotoxicity, dose response, cytotoxicity control, plate reader, cherry-pick, antagonist series (AID 743416); format: functional, cell-based
[22] = MC4R antagonists, dose response, counter-screen for LGR2 antagonist project, cell-based, plate reader, cherry pick (AID 743444); format: functional;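 further: transfected HEK 293 cells stimulated with alpha-MSH peptide; potency of inhibitors of the alpha-MSH evoked signal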
Jurkat = experiment: antigen receptor-induced NF-kB inhibitors, dose response, Jurkat, luciferase reporter, luminescence, B- and T-cell (AID 489004); format: functional, cell-based; details: Homo sapiens;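 further: NF-kB luciferase reporter Jurkat cells stimulated with PMA plus ionomycin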
[23] = LGR2 antagonists, dose response, cell-based, HEK293, CRE-luciferase reporter, cherry pick, set 2 (AID 743343); format: functional;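 further: transfected cells were stimulated with diluted bursicon conditioned medium after compound addition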
[24] = A549 cell cytotoxicity, dose response, cytotoxicity control, plate reader, cherry-pick, antagonist series (AID 743412); format: functional, cell-based
cells = format: functional, cell-based; details: HEK-CNG
Galanin receptor type 3 = target: T2, Galanin receptor type 3 (Homo sapiens, UniProt O60755); experiment: Fluorescence-based cell-based primary high throughput dose response assay to identify antagonists of the Galanin Receptor 3 (GalR3).; format: functional
T2 sequence (O60755 whole entry): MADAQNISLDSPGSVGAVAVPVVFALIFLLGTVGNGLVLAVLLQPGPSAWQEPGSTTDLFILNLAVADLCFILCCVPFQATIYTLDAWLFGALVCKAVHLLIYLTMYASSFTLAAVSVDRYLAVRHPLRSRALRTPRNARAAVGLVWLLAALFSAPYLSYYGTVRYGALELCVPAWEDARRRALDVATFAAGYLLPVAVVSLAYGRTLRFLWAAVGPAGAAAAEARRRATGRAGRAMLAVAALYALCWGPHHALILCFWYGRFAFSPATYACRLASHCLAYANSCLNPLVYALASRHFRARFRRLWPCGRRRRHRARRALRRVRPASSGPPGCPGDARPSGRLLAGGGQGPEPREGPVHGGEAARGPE

Chain of Paired box protein Pax-8 (Q06710 whole entry): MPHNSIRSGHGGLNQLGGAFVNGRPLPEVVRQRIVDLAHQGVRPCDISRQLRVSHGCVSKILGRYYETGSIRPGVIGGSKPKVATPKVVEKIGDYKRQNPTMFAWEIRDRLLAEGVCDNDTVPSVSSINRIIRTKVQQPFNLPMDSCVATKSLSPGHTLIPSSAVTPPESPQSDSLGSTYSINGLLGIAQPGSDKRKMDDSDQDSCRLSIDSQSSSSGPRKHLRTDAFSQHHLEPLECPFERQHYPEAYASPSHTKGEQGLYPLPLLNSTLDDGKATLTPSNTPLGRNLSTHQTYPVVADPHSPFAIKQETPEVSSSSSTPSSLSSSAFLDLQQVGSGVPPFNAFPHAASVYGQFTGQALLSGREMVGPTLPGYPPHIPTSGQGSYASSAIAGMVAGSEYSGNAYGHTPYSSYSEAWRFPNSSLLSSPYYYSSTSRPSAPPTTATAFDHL

SMILES	AC50 [3]	IC50 [4]	IC50 [5]	AC50 [8]	AC50 [9]	AC50 [14]	AC50 [15]	EC50 (HEK293 [16])	EC50 (HEK293 [17])	AC50 [18]	AC50 [19]	IC50 [20]	IC50 (Jurkat)	other results
O=C(c1ccc(F)cc1)C(CN1CCOCC1)c1ccccc1 (stereo unspecified)	19.4 µM (active)	4.17 µM (active)	3.27 µM (active)	6.91 µM (active)	17.6 µM (active)									EC50 [1]: 2.42 µM (active); EC50 [2]: 10.9 µM (active); AC50 (A-375 [6]): > 35 µM (active); EC50 [7]: 4.06 µM (active); EC50 [10]: 3.36 µM (active); AC50 [11]: 5.96 µM (active); AC50 (A-375 [12]): > 35 µM (active)
COc1ccc(CCN2C(=O)c3[nH]nc(-c4ccccc4O)c3C2c2ccccc2)cc1OC (stereo unspecified)						0.625 µM (active)	0.929 µM (active)	> 59.7 µM (inactive)	> 59.7 µM (inactive)	0.621 µM (active)	0.376 µM (active)			AC50 [13]: 52.7 µM (active)
COc1ccc(C(=O)CN2C(=O)c3ccccc3S2(=O)=O)cc1						10.7 µM (active)	2.16 µM (active)			2.54 µM (active)	1.07 µM (active)	> 80 µM (inactive)	1.08 µM (active)	AC50 (Paired box protein Pax-8): 3.53 µM (active); AC50 [21]: > 52 µM (inactive); AC50 [22]: 0.691 µM (active); AC50 [23]: 0.675 µM (active); AC50 [24]: > 52 µM (inactive)
CC(=O)c1cn(Cc2ccccc2C#N)c2ccccc12	2.2 µM (active)	1.01 µM (active)	0.64 µM (active)	4.28 µM (active)	0.527 µM (active)							> 80 µM (inactive)	30 µM (inactive)	EC50 (cells): > 29.9 µM (inactive); IC50 (Galanin receptor type 3): 3.07 µM (active)
COc1ccc(OC)c(-c2cc(C(=O)Nc3c(C)nn(Cc4ccccc4)c3C)no2)c1								> 59.6 µM (inactive)	> 59.6 µM (inactive)					
